Results on seven compounds are retold here after publication PMC2925893, “Structure Activity Relationship of Dendrimer Microbicides with Dual Action Antiviral Activity” (PLoS ONE, 2010).

Where two headings read alike, the source gives them in different places. Where only a bound is given, the exact number is not on record here.

The subject of data set [1] is X4 (HXB2) HIV-1 envelope mediated cell-to-cell fusion. The experiment in a line: Cell-to-cell fusion assay, X4 envelope. The format is cell-based. On the procedure:
(§1) The gp120 gene from the R5 HIV-1 strain ADA and X4 HIV-1 strain HXB2 was cloned into a HIV-1 Env expression vector. Briefly, the 2.1 kb HIV-1 env within Kpn I and Bam HI restriction sites was cloned from viral genomic DNA into pSVIII-HXB2 Env expression vector [67]. The pcDNA3-CD4, pcDNA3-CCR5 and pcDNA3-CXCR4 plasmids express human CD4, R5 and X4 respectively. pSVTat expresses the HIV-1 Tat protein. Cell-cell fusion assays were conducted as described previously. Briefly, Cf2-Luc target cells seeded in 25 cm^2 tissue culture flasks were transfected with 1 µg of CD4 plasmid and 3 µg of R5 or X4 plasmid. 293T effector cells seeded in 6-well tissue culture plates were co-transfected with 3.4 µg of ADA or HXB2 gp120-expressing plasmid and 0.6 µg pSVTat. Target and effector cells were transfected using Lipofectamine 2000 (Invitrogen) according to the manufacturers' protocol. Effector cells expressing ADA or HXB2 Env were pre-incubated in DMEM-10 containing 10-fold increasing concentrations of efavarenz, T-20, dendrimer or no drug (untreated controls) for 30 min at 37°C. Approximately 2×10^4 effector cells were added to 2×10^4 Cf2-Luc target cells and were incubated at 37°C in replicate wells containing 200 µl of culture. Cells from replicate wells were harvested at 7 h post-mixing and assayed for luciferase activity (Promega) according to the manufacturers' protocol. […]

Data set [2] concerns HIV-1 NL4.3. The experiment in a line: Time of addition assay in TZM-bl cells. The format is cell-based. On the procedure: TZM-bl cells were seeded in 96-well tissue culture plates at 2.5×10^4 cells per well in 100 µl of DMEM-10. Cells were grown for 12 h at 37°C in 5% CO2 after which triplicate wells were infected with NL4.3 at a multiplicity of infection of one by spinoculation. Briefly, DMEM-10 was removed from cells and replaced with 100 µl of virus in DMEM-10 and plates were centrifuged at 1200 g for 60 min at 17°C. Viral inoculum was removed and cells washed twice with 250 µl of cold DMEM-10 after which 100 µl of DMEM-10 or DMEM-10 containing drug was added at t = 0 to appropriate cells. DMEM-10 containing drug was subsequently added at t = 2, 3, 4, 5, 6, 8 and 24 h post infection to appropriate wells. At 31 h postinfection, HIV-1 replication was determined by measuring luciferase activity as above.

In data set [3] the test system is HIV-1 strains. Nature of the data set: microbe, parasite or virus in culture. The format is cell-based. The procedure:
(§2) Fresh human PBMCs were isolated from screened donors, seronegative for HIV and hepatitis B virus. Cells were pelleted/washed 2-3 times by low speed centrifugation and resuspended in Dulbecco’s phosphate buffered saline (PBS) to remove contaminating platelets. The leukophoresed blood was then diluted 1:1 with PBS and layered over 14 ml of Ficoll-Hypaque density gradient (Lymphocyte Separation Medium, Cell Grow #85-072-CL, density 1.078 +/- 0.002 gm/ml) in a 50 ml centrifuge tube and then centrifuged for 30 min at 600g. Banded PBMCs were gently aspirated from the resulting interface and subsequently washed twice with PBS by low speed centrifugation. After the final wash, cells were counted by trypan blue exclusion and resuspended at 1 x 10^7 cells/ml in RPMI 1640 supplemented with 15% Fetal Bovine Serum (FBS), 2 mM L-glutamine, 4 µg/ml PHA-P. The cells were allowed to incubate for 48-72 h at 37°C. After incubation, PBMCs were centrifuged and resuspended in RPMI 1640 with 15% FBS, 2 mM L-glutamine, 100 U/ml penicillin, 100 µg/ml streptomycin, 10 µg/ml gentamycin, and 20 U/ml recombinant human IL-2. PBMCs were maintained in this medium at a concentration of 1-2 x 10^6 cells/ml with biweekly medium changes until used in the assay protocol. Monocytes were depleted from the culture as the result of adherence to the tissue culture flask.
For the standard PBMC assay, PHA-P stimulated cells from at least two normal donors were pooled, diluted in fresh medium to a final concentration of 1 x 10^6 cells/ml, and plated in the wells of a 96-well round bottom microplate at 50 µl/well (5 x 10^4 cells/well). […] Fifty microlitres of a predetermined dilution of virus stock was placed in each test well (final MOI ≅ 0.1). Wells with cells and virus alone were used for virus control. […] The PBMC cultures were maintained for seven days following infection, at which time cell-free supernate samples were collected and assayed for reverse transcriptase activity as described below.
A microtiter plate-based reverse transcriptase (RT) reaction was utilized. Tritiated thymidine triphosphate (^3H-TTP, 80 Ci/mmol, NEN) was received in 1:1 dH2O:ethanol at 1 mCi/ml. PolyrA:oligodT template-primer (Pharmacia) was prepared as a stock solution by combining 150 µl polyrA (20 mg/ml) with 0.5 ml oligodT (20 units/ml) and 5.35 ml sterile dH2O followed by aliquoting (1.0 ml) and storage at -20°C. The RT reaction buffer was prepared fresh on a daily basis and consisted of 125 µl 1.0 M EGTA, 125 µl dH2O, 125 µl 20% Triton X100, 50 µl 1.0 M Tris (pH 7.4), 50 µl 1.0 M DTT, and 40 µl 1.0 M MgCl2. The final reaction mixture was prepared by combining 1 part ^3H-TTP, 4 parts dH2O, 2.5 parts polyrA:oligodT stock and 2.5 parts reaction buffer. Ten microliters of this reaction mixture was placed in a round bottom microtiter plate and 15 µl of virus containing supernatant was added and mixed. The plate was incubated at 37°C for 60 min. Following incubation, the reaction volume was spotted onto DE81 filter-mats (Wallac), washed 5 times for 5 min each in a 5% sodium phosphate buffer or 2X saline sodium citrate (SSC, Life Technologies), 2 times for 1 min each in distilled water, 2 times for 1 min each in 70% ethanol, and then dried. Incorporated radioactivity (counts per minute, CPM) was quantified using standard liquid scintillation techniques.
(§3) The plate was read spectrophotometrically at 490/650 nm with a Molecular Devices Vmax plate reader

Data set [4] deals with HIV-2 strains. Nature of the data set: Anti-HIV activity in PHA-stimulated human PBMCs, supernatant RT activity readout. The following applies: PBMC. The format is cell-based. On the procedure:
as §2
For the standard PBMC assay, PHA-P stimulated cells from at least two normal donors were pooled, diluted in fresh medium to a final concentration of 1 x 10^6 cells/ml, and plated in the wells of a 96-well round bottom microplate at 50 µl/well (5 x 10^4 cells/well). […] Fifty microlitres of a predetermined dilution of virus stock was placed in each test well (final MOI ≅ 0.1). Wells with cells and virus alone were used for virus control. […]
A microtiter plate-based reverse transcriptase (RT) reaction was utilized. […] Incorporated radioactivity (counts per minute, CPM) was quantified using standard liquid scintillation techniques.
as §3

For data set [5], the system named is R5 (ADA) HIV-1 envelope mediated cell-to-cell fusion. The experiment in a line: Cell-to-cell fusion assay, R5 envelope. The format is cell-based. On the procedure:
as §1

For data set [6], the system named is HSV-2 strain G. More on the design: method as in PMID 16740164. The following applies: mouse, single dose; cited from earlier work.
The mark [7] stands for this setting: PBMC, multi-drug resistant HIV-1 MDR769.

Consider `c1cc(CN2CCCNCCNCCCNCC2)ccc1CN1CCCNCCNCCCNCC1` [AMD3100], for which the “inhibition of cell-to-cell fusion” value in data set [1] is recorded as “failed to inhibit fusion”. The “time of addition result” value in data set [2] (dendrimers at 20 and 100 µg/ml) was “failed to block HIV-1 replication if the drug was added after virus addition”.
For `Cc1cn([C@H]2C[C@H](N=[N+]=[N-])[C@@H](CO)O2)c(=O)[nH]c1=O` [AZT, zidovudine], the EC50 in data set [3] (Human immunodeficiency virus 1, CCR5, PBMC, Clade A (92RW016), CCR5) is 2 nM; in data set [3] (Human immunodeficiency virus 1, CCR5, PBMC, Clade B (302056), CCR5) it was 10 nM; in data set [3] (Human immunodeficiency virus 1, CCR5, PBMC, Clade C (92BR025), CCR5) it was 4 nM; in data set [3] (Human immunodeficiency virus 1, CCR5, PBMC, Clade G (JV1083), CCR5), 4 nM; in data set [3] (Human immunodeficiency virus 1, CCR5, PBMC, Clade O (BCF01), CCR5), 4 nM; in data set [3] (Human immunodeficiency virus 1, CCR5, PBMC, SLKA (NSI), CCR5) it was 4 nM. Moreover, the EC50 worked out at 2 nM in data set [3] (Human immunodeficiency virus 1, CCR5, PBMC, TEKI (NSI), CCR5); 3 nM in data set [3] (Human immunodeficiency virus 1, PBMC, PBMC, Clade D (92UG046), CXCR4); 8 nM in data set [3] (Human immunodeficiency virus 1, PBMC, PBMC, Clade EA (CMU02), CXCR4); 2 nM in data set [3] (Human immunodeficiency virus 1, PBMC, PBMC, Clade F (93BR020), dual tropic); 2 nM in data set [3] (Human immunodeficiency virus 1, PBMC, PBMC, ROJO (SI), CXCR4); 0.3 nM in data set [3] (Human immunodeficiency virus 1, PBMC, PBMC, WEJO (SI), CXCR4). Also, the EC50 in data set [3] (Human immunodeficiency virus 1, PBMC, read-out: EC50 of positive control, assay validation, PBMC assays) was at most 10 nM; in data set [4] (Human immunodeficiency virus 2, HIV-2 CBL-20, AZT column), 1 nM. Further, the SI in data set [3] (PBMC, Clade A (92RW016)) was over 500; in data set [3] (PBMC, Clade B (302056)), over 100; in data set [3] (PBMC, Clade C (92BR025)), over 250; in data set [3] (PBMC, Clade D (92UG046)), over 333; in data set [3] (PBMC, Clade EA (CMU02)) it was over 125; in data set [3] (PBMC, Clade F (93BR020)) it was over 500. Further, the SI in data set [3] (PBMC, Clade G (JV1083)) is recorded as over 250; in data set [3] (PBMC, Clade O (BCF01)), over 250; in data set [3] (PBMC, ROJO (SI)), over 500; in data set [3] (PBMC, SLKA (NSI)), over 250; in data set [3] (PBMC, TEKI (NSI)), over 500; in data set [3] (PBMC, WEJO (SI)), over 3333. In addition, the SI in data set [4] (HIV-2 CBL-20) and in data set [4] (HIV-2 CDC 310319) was over 1000 throughout.
For `O=C1Nc2ccc(Cl)cc2[C@@](C#CC2CC2)(C(F)(F)F)O1` [efavirenz], the “inhibition of cell-to-cell fusion” value in data set [5] and in data set [1] was “did not inhibit cell-to-cell fusion” in each case.
Take `Cc1ccnc2c1NC(=O)c1cccnc1N2C1CC1` [nevirapine]: the “time post infection that addition could be delayed before loss of HIV-1 inhibitory activity” value in data set [2] is on record as “up to 6 h”.
As to `CCCCCCCCCc1ccc(OCCOCCOCCOCCOCCOCCOCCOCCOCCO)cc1` [nonoxynol 9], the “susceptibility to HSV-2 infection after exposure” value in data set [6] is reported as “susceptibility is greatly increased”.
Regarding Dextran Sulfate, in data set [3] (setting [7]), the EC50 was 1.25 µg/mL and the SI is listed as over 80.
In the case of maraviroc, the “inhibition of cell-to-cell fusion” value in data set [5] was “failed to inhibit fusion”.

As usually defined, the EC50 is the concentration that produces a half-maximal response.
